Laboratory results: PMC3025922 (BMC Biology, 2010)
Several values for one entry are separate records, joined by “and”; a condition that tells them apart may be missing. Identical values can stand only once. Like-named read-outs stand apart in the source and are kept apart here.

Assays:
[1] = tested on: nuclear p27 in LNCaP-S14 cells; format: cell-based, human; conditions: primary screening
[2] = target: PDGF receptor tyrosine kinase; conditions: vendor annotation of library compound (Biomol EI-215); cited from earlier work
[3] = tested on: LNCaP cells; experiment: Cell cycle analysis by flow cytometry, LNCaP; format: cell-based, human
Procedure: (§1) Cells were exposed to SMIPs (40 μM) for 24 h and 48 h. Cells were trypsinized, washed with PBS and suspended in 600 μL PBS. Cells were fixed by adding 1.4 mL cold absolute ethanol and kept at -20°C for at least 12 h. After washing once with PBS, the cells were resuspended in 250 μL PBS containing 2.5 μg RNAse A and incubated for 45 min at room temperature. Staining was done by adding 40 μg/mL of propidium iodine followed by incubation for 15 min at room temperature. DNA-bound fluorescence was read at 564 to 606 nm using FACSort and FACSCanto flow cytometers (BD Biosciences) at the Flow Cytometry Facility of the Sanford-Burnham Medical Research Institute. Distribution of cells in the different cell cycle phase was determined with ModFit LT 3.2.1 or FlowJo 8.6 software. Aggregates were excluded from the analysis manually using pulse shape or identified by automated modelling in ModFit LT.

[4] = tested on: LNCaP-S14 cells; experiment: Cell cycle analysis by flow cytometry, LNCaP-S14; format: cell-based, human
Procedure: as §1

[5] = tested on: DU145 cells; experiment: Cell cycle analysis by flow cytometry, DU145; format: cell-based, human
Procedure: as §1

[6] = tested on: PC3 cells; experiment: Cell cycle analysis by flow cytometry, PC3; format: cell-based, human
Procedure: as §1

[7] = tested on: IMR90 cells; experiment: Cell cycle analysis by flow cytometry, IMR90; format: cell-based, human
Procedure: as §1

[8] = tested on: LNCaP-S14 cells; experiment: Cell cycle distribution in LNCaP-S14 transfected with siRNAs for p27 and p21; format: cell-based, human
Procedure: as §1
LNCaP-S14 cells were seeded in 6 cm dishes or six-well-plates coated with poly-lysine the day before transfection. 10-20 nM of siRNA was transfected using DharmaFECT 3 (Thermo Scientific) according to the manufacturer's instructions. Briefly, siRNAs were dissolved in siRNA suspension buffer (Quiagen) at 20 μM, heated to 90°C for 1 min and incubated at 37°C for 1 h. siRNAs were added to the DharmaFECT 3 reagent diluted in Optimem media (1:100) and incubated for 20 min at room temperature. The mix was added to the cells for 24 h. Treatment with SMIPs (40 μM) or vehicle was carried on for another 24 h. Cells were obtained for FACS or lysed for immunoblotting analysis as described above. Untransfected cells as well as cells transfected with non-specific siRNA were used as controls. Silencer® Negative Control siRNA No.1 from Ambion (Applied Biosciences, CA, USA) was used as non-specific control siRNA. siRNA target sequences for p27 and p21 synthesized by IDT (Integrated DNA Technologies Inc, Iowa, USA) were as follows; p27 siRNA: […], and p21 siRNA: […] [56].

[9] = tested on: p27 protein levels in LNCaP-S14 cells; experiment: Immunoblot quantification of p27, LNCaP-S14; format: cell-based, human
Procedure: (§2) Total cell lysate from cells treated with vehicle (DMSO) or compounds were obtained by incubating cells in lysis buffer (25 mM Tris-HCl pH 7.4, 150 mM NaCl, 0.5% Triton X-100, protease inhibitors) for 15 min at 4°C. The supernatant was collected by centrifugation and the amount of protein was determined with a Bio-Rad protein assay (Bio-Rad) using BSA as standard. Equal amounts of protein were subjected to SDS-PAGE (4%-20% gels, Invitrogen) and transferred to PVDF membranes. The membranes were blocked with TBST (50 mM Tris-HCl pH 7.5, 150 mM NaCl, 0.05% Tween-20) containing 5% non-fat dry milk or bovine serum albumin (BSA) for 1 h at room temperature, followed by incubation in primary antibodies 4°C overnight. Membranes were washed and incubated with secondary antibodies conjugated to HRP (Jackson ImmunoResearch Laboratories) for 1 h at room temperature. Signals were visualized using the ECL Western Blotting Substrate (Pierce Biotechnology, IL, USA) according to the manufacturer's instructions. Membranes were stripped using Restore™ Western Blot Stripping Buffer (Pierce Biotechnology). Films were scanned and quantification of the bands was performed using Image J software http://rsbweb.nih.gov/ij/.

[10] = tested on: p21 protein levels in LNCaP-S14 cells; experiment: Immunoblot quantification of p21, LNCaP-S14; format: cell-based, human
Procedure: as §2

[11] = tested on: p27 protein levels in LNCaP cells; experiment: Immunoblot quantification of p27, LNCaP; format: cell-based, human
Procedure: as §2

[12] = tested on: p21 protein levels in LNCaP cells; experiment: Immunoblot quantification of p21, LNCaP; format: cell-based, human
Procedure: as §2

[13] = tested on: p27 protein levels in PC3 cells; experiment: Immunoblot quantification of p27, PC3; format: cell-based, human
Procedure: as §2

[14] = tested on: p21 protein levels in PC3 cells; experiment: Immunoblot quantification of p21, PC3; format: cell-based, human
Procedure: as §2

[15] = tested on: p27 protein levels in DU145 cells; experiment: Immunoblot quantification of p27, DU145; format: cell-based, human
Procedure: as §2

[16] = tested on: p21 protein levels in DU145 cells; experiment: Immunoblot quantification of p21, DU145; format: cell-based, human
Procedure: as §2

[17] = tested on: p27 protein levels in HeLa cells; experiment: Immunoblot quantification of p27, HeLa; format: cell-based, human
Procedure: as §2

[18] = tested on: p21 protein levels in HeLa cells; experiment: Immunoblot quantification of p21, HeLa; format: cell-based, human
Procedure: as §2

[19] = tested on: p27 protein levels in IMR90 cells; experiment: Immunoblot quantification of p27, IMR90; format: cell-based, human
Procedure: as §2

[20] = tested on: p21 protein levels in IMR90 cells; experiment: Immunoblot quantification of p21, IMR90; format: cell-based, human
Procedure: as §2

[21] = tested on: p27 stability in LNCaP-S14 cells; experiment: Protein half-life by cycloheximide chase; format: cell-based, human; conditions: human
Procedure: LNCaP-S14 cells were treated with SMIPs (40 μM) for 18 h followed by the addition of 100 μg/mL cycloheximide (CHX). Cell extracts were obtained as described above at different times after CHX addition. Protein lysate was subjected to SDS-PAGE and immunoblotting for p27, p21 and SKP2. Tubulin was used as loading control. Protein half-lives were calculated using a web based calculator http://www.1728.com/halflife.htm.

[22] = tested on: LNCaP-S14 cells; experiment: Cell Death Detection ELISA (cytoplasmic histone-associated DNA fragments); format: cell-based, human
Procedure: Apoptosis was measured using the Cell Death Detection ELISA (Roche, Basel, Switzerland) following the manufacturer's instructions. Briefly, LNCaP-S14 cells (0.1 × 10^6) were seeded in 12-well plates and treated with SMIPs (40 μM) for 24 h. Cells were collected in medium, spun at 1000 rpm, and resuspended in 1 mL PBS at the specified time points (day 1 to day 3). The cell suspension was divided into two parts. The first half was used for determination of cytoplasmic histone-associated DNA fragments (ELISA), the second for protein determination to normalize the ELISA data to the amount of input protein.

[23] = tested on: SKP2 levels in LNCaP-S14 cells; format: cell-based, human
[24] = tested on: PC3 cells; experiment: MTT cytotoxicity assay, PC3; conditions: Homo sapiens, read-out: IC50 (MTT cytotoxicity)
Procedure: (§3) LNCaP-S14 (10,000 cells), PC3, DU145 or IMR90 cells (5000 cells) were seeded in 96-well plates and treated with increasing concentrations of the respective SMIPs for 72 h. Cell viability was assessed using the MTT cell proliferation assay (ATCC®, Middlesex, UK) according to the manufacturer's protocol. IC50 was calculated using the BioDataFit 1.02 software http://www.changbioscience.com/stat/ec50.html.

[25] = tested on: DU145 cells; experiment: MTT cytotoxicity assay, DU145; conditions: Homo sapiens, read-out: IC50 (MTT cytotoxicity)
Procedure: as §3

[26] = tested on: LNCaP-WT cells; experiment: MTT cytotoxicity assay, LNCaP-WT; conditions: Homo sapiens, read-out: IC50 (MTT cytotoxicity)
Procedure: as §3

[27] = tested on: LNCaP-S14 cells; experiment: MTT cytotoxicity assay, LNCaP-S14; conditions: Homo sapiens, 72 h, read-out: IC50 (MTT cytotoxicity)
Procedure: as §3

## CC(C)(C)c1cc(C=C(C#N)C#N)cc(C(C)(C)C)c1O [1362L21]
[1]; nuclear p27 in LNCaP-S14 cells
  Z score (aver): 6.21
[1]; S = strong, M = medium, W = weak by Z score
  Clasf: S (strong (Z score > 5))
[2]
  IC50: 1.2 µM

## CCCCc1ccc(NC(C)=O)c(C)c1 [SMIP004]
[3]
  Cell cycle distribution G1: 81.7 and 87.3
  Cell cycle distribution G2: 9.8 and 6.6
[4]
  Cell cycle distribution G1: 72.3 and 75.8
  Cell cycle distribution G2: 7.1 and 6.4
  Cell cycle distribution S: 19.1 and 14.7
[5]
  Cell cycle distribution G1: 75.7 and 79.7
  Cell cycle distribution G2: 8.0 and 10.4
  Cell cycle distribution S: 14.1 and 9.0
[6]
  Cell cycle distribution G1: 58.5 and 65.8
  Cell cycle distribution G2: 25.7 and 24.3
  Cell cycle distribution S: 14.3 and 8.5
[7]
  Cell cycle distribution G1: 68.6 and 77.6
  Cell cycle distribution G2: 13.2 and 10.9
  Cell cycle distribution S: 18.2 and 11.5
[8]
  % G1: 66.92% and 62.86% and 69.79% and 66.56%
  % G2: 13.34% and 17.13% and 13.32% and 15.94%
  % S: 19.75% and 20.02% and 16.90% and 17.50%
[9]
  p27 accumulation by immunoblotting: ~ threefold
  p27 protein level (immunoblot, DMSO = 1.0): 2.4 ± 0.7
[10]
  p21 protein level (immunoblot, DMSO = 1.0): 2.8 ± 0.7
[11]
  p27 protein level (immunoblot, DMSO = 1.0): 2.1 ± 1.1
[12]
  p21 protein level (immunoblot, DMSO = 1.0): 2.7 ± 0.1
[13]
  p27 protein level (immunoblot, DMSO = 1.0): 1.1 ± 0.3
[14]
  p21 protein level (immunoblot, DMSO = 1.0): 1.7 ± 0.9
[15]
  p27 protein level (immunoblot, DMSO = 1.0): 1.3 ± 0.1
[16]
  p21 protein level (immunoblot, DMSO = 1.0): 1.7 ± 0.5
[17]
  p27 protein level (immunoblot, DMSO = 1.0): 1.1 ± 0.2
[18]
  p21 protein level (immunoblot, DMSO = 1.0): 1.1 ± 0.1
[19]
  p27 protein level (immunoblot, DMSO = 1.0): 1.2 ± 0.3
[20]
  p21 protein level (immunoblot, DMSO = 1.0): 1.1 ± 0.0
[21]
  p27 half-life: > 6 h
[22]
  increase in the amount of mono and oligonucleosomes: three- to fivefold
[23]
  SKP2 levels (endogenous and exogenous) by immunoblotting: decrease
[24]; PC-3, 72 h
  IC50: > 80 µM
[24]; PC-3, 96 h
  IC50: > 80 µM
[25]; DU-145, 72 h
  IC50: > 80 µM
[25]; DU-145, 96 h
  IC50: > 80 µM
[26]; 72 h
  IC50: 40 µM
[26]; 96 h
  IC50: 2.4 µM
[27]
  IC50: 1.09 µM
